The text below walks through data of patent US20110098296A1, “Thiazole And Oxazole Kinase Inhibitors” (priority 2007, published 2011).

Molecules are shown by their SMILES. Counter-ions that a name gives are not always drawn.

In one test the target is T1, EGFR (Homo sapiens, UniProt P00533).
T1 construct: made in house; host or cells: baculovirus expression system
As to the kind of experiment: EGFR substrate phosphorylation assay (HTRF). In kind it is biochemical. As to the method:
(§1) Compounds of the present invention were tested for EGFR and ErbB-2 protein tyrosine kinase inhibitory activity in substrate phosphorylation assays using enzymes purified from a baculovirus expression system. Reagent production was conducted essentially as described in Brignola, P. S., et al., (2002) J. Biol. Chem. 277(2):1576-1585.
(§2) The method measures the ability of the isolated enzyme to catalyse the transfer of the gamma-phosphate from ATP onto the tyrosine residue of a biotinylated synthetic peptide referenced “Peptide C” in Brignola, P. S., et al., (2002) J. Biol. Chem. 277(2):1576-1585. The extent of tyrosine phosphorylation was measured using an anti-phosphotyrosine antibody, and quantified by homogenous time-resolved fluorescence (HTRF).
(§3) Reactions were performed in black 384-well polystyrene flat-bottom plates in a final volume of 20 μl. Assays were performed by adding 10 μl of each of the following solutions, Substrate Mix and Enzyme Mix: The Substrate Mix contained 100 mM 3-[N-morpholino]propanesulfonic acid (MOPS) (pH 7.5), 2 mM MnCl2, 20 μM ATP, 0.01% Tween-20, 0.1 mg/mL (BSA), 0.8 uM peptide substrate, and 1 mM dithiothreitol. The Enzyme Mix contained 100 mM MOPS (pH 7.5); 0.01% Tween-20; 0.1 mg/mL BSA, and either 0.8 nM EGFR, 10 nM ErbB2, or 1 nM ErbB4
(§4) During the course of these studies, two separate methods have been used to measure the potency of compounds. In Method A (indicated as “(A)” in the tables below), the Enzyme Mix was added to the compound plates and the plates were incubated at 20° C. for 1 hr. The reactions were then started by adding the Substrate Mix. In Method B (indicated as “(B)” in the tables below), the Substrate Mix was added to the compound plates first, then the reaction was started by adding the Enzyme Mix.
(§5) After initiating the reaction with either method describe above, the reactions were allowed to proceed for 90 minutes at 20° C. The reactions were then terminated by the addition of 20 μL 100 mM EDTA to each well. 40 μL/well of HTRF detection mix were added to the assay plates. The final concentrations of the detection reagents were: 100 mM HEPES (pH7.5), 0.1 mg/mL BSA, 15 nM streptavidin-labeled allophycocyanin (PerkinElmer), and 1 nM europium-labeled anti-phosphotyrosine antibody (PerkinElmer). Assay plates were left unsealed and were counted in a Wallac Multilabel Counter 1420 (PerkinElmer).
(§6) Compounds under analysis were dissolved in dimethylsulfoxide (DMSO) to 1.0 mM and serially diluted 1 to 3 with DMSO through twelve dilutions. 1 μL of each concentration was transferred to the corresponding well of an assay plate. This creates a final compound concentration range from 0.00027 to 47.6 μM.
(§7) The data for dose responses were plotted as % Inhibition calculated with the data reduction formula 100*(1−(U1−C2)/(C1−C2)) versus concentration of compound where U1 is the unknown value, C1 is the average control value obtained for 4.76% DMSO, and C2 is the average control value obtained for 0.035 M EDTA. Data were fitted with a curve described by:
(§8) where Vmax is the upper asymptote, Y2 is the Y intercept, and K is the IC50. The results for each compound were recorded as pIC50s, calculated as follows: […]
For orientation: TR-FRET usually uses a lanthanide donor and a delayed reading to cut background.

In a further test the target is T2, ErbB2 (Homo sapiens, UniProt P04626).
T2 construct: made in house; host or cells: baculovirus expression system
The test is described as follows: ErbB-2 substrate phosphorylation assay (HTRF). The format is biochemical. The method, then:
as §1, §2, §3, §4, §5, §6, §7, §8

The subject of a further test is BT474 tumor cells. As to the kind of experiment: Method C: Cell Growth Inhibition Assay (CellTiter-Glo), BT474. The format is cell-based. The note with it: Homo sapiens, BT-474, 72 h, 3 days, 4-parameter fit. As to the method: (§9) Human breast tumor cells (BT474) were cultured in RPMI (Mediatech 50-011-PB), containing 10% FBS (JRH Biosciences 12176) and 1% penicillin-streptomycin (Invitrogen 15140). Human head and neck tumor cells (HN5) were cultured in high glucose DMEM (Mediatech 50-013-PB) containing 10% FBS and 1% penicillin-streptomycin. Human colon tumor cells (Colo205) were cultured in RPMI (Mediatech 50-020-PB) containing 10% FBS and 1% penicillin-streptomycin. Human melanoma cancer cells (SK-MEL-28) were cultured in EMEM with nonessential amino acids (Mediatech 50-011-PB) containing 10% FBS, 1% sodium pyruvate (JT Baker 3354-04), and 1% penicillin-streptomycin. Human melanoma cancer cells (A375P F11s) were cultured in RPMI (Mediatech 50-020-PB) containing 10% FBS, 1% sodium pyruvate, and 1% penicillin-streptomycin. Human colon cancer cells (HT-29) were cultured in high glucose DMEM (Mediatech 50-013-PB) containing 10% FBS and 1% penicillin-streptomycin. Human melanoma cancer cells (SK-MEL-3) were cultured in McCoy's 5A (50-025-PB) containing 15% FBS, and 1% penicillin-streptomycin. All cell lines were maintained at 37° C. in a humidified 5% CO2, 95% air incubator. Cells were harvested using trypsin/EDTA (Invitrogen 25200), counted using an haemocytometer, and plated. For 96-well assays (using white full-area NUNC plates cat. #136102), cells were plated in 105 μL at the following densities (cells/well): HN5, 500; Colo205, 500; SK-MEL-28, 500; A375P-F11s, 500; HT-29, 500; SK-MEL-3, 500; and BT474, 3000. For 384-well assays (white full-area NUNC plates, cat. #781080), cells were plated in 48 μL at the following densities (cells/well): HN5, 500; Colo205, 500; SK-MEL-28, 500; A375P-F11s, 500; HT29, 500; SK-MEL-3, 500; and BT474, 2000.
(§10) The next day, compounds were diluted as follow: For 96-well assays, 13.5 μL of compound in DMSO were diluted using nine (9) serial 1:3 dilutions of 4.5 μL in 9 μL of DMSO. Medium (270 μl/well of RPMI with 10% FBS and 1% penicillin-streptomycin) was added to the plates. Aliquots (7 μl) were added to cells in the final assay giving a final DMSO concentration of 0.2%. For 384-well assays, 15 μL of compound in DMSO were diluted using nine (9) serial 1:3 dilutions of 5 μL in 10 μL of DMSO, followed by a further dilution of 5 μL of compound with 95 μL of medium, of which 2 μL were added to cells in the final assay giving a final DMSO concentration of 0.2%. Cells were incubated at 37° C., 5% CO2 for 3 days.
(§11) Total ATP was measured (as a surrogate estimate of cell number) using CellTiter-Glo® reagent (Promega G7571). Briefly, plates were removed from the incubator and allowed to equilibrate to room temperature for 30 minutes. CellTiter-Glo® (25 μL or 55 μL for 384-well or 96-well assays, respectively) reagent was added to each well and plates were shaken on an orbital plate shaker for 2 mins. Plates were incubated without shaking for a further 30 mins and read on an LJL Analyst GT reader in luminometer mode with an integration time of 0.5 seconds per well. Percent inhibition of cell growth was calculated relative to DMSO vehicle-treated control wells. Concentration of compound required to give 50% inhibition of vehicle-treated control cell growth (IC50) was interpolated using a 4-parameter fit for determining IC50 using the following equation: Y=A+((B−A)/(1+((C/X)̂D))) where X=IC50.
A general note: ATP-based viability assays read luminescence as a measure of living cells.

A further test has as its system Colo205 tumor cells. The test is described as follows: Method C: Cell Growth Inhibition Assay (CellTiter-Glo), Colo205. In kind it is cell-based. The note with it: Homo sapiens, COLO 205, 72 h, 3 days, 4-parameter fit. As to the method: as §9, §10, §11
The next test concerns SK-MEL-28 tumor cells. The test is described as follows: Method C: Cell Growth Inhibition Assay (CellTiter-Glo), SK-MEL-28. In kind it is cell-based. The conditions noted are these: Homo sapiens, SK-MEL-28, 72 h, 3 days, 4-parameter fit. As to the method:
as §9, §10, §11

The mark [1] stands for this setting: Method (A): Enzyme Mix incubated with compound at 20° C. for 1 hr, reaction started by adding Substrate Mix.
Setting [2] is: Method (B): Substrate Mix added to compound first, reaction started by adding Enzyme Mix.

T1 sequence (P00533 25-1210): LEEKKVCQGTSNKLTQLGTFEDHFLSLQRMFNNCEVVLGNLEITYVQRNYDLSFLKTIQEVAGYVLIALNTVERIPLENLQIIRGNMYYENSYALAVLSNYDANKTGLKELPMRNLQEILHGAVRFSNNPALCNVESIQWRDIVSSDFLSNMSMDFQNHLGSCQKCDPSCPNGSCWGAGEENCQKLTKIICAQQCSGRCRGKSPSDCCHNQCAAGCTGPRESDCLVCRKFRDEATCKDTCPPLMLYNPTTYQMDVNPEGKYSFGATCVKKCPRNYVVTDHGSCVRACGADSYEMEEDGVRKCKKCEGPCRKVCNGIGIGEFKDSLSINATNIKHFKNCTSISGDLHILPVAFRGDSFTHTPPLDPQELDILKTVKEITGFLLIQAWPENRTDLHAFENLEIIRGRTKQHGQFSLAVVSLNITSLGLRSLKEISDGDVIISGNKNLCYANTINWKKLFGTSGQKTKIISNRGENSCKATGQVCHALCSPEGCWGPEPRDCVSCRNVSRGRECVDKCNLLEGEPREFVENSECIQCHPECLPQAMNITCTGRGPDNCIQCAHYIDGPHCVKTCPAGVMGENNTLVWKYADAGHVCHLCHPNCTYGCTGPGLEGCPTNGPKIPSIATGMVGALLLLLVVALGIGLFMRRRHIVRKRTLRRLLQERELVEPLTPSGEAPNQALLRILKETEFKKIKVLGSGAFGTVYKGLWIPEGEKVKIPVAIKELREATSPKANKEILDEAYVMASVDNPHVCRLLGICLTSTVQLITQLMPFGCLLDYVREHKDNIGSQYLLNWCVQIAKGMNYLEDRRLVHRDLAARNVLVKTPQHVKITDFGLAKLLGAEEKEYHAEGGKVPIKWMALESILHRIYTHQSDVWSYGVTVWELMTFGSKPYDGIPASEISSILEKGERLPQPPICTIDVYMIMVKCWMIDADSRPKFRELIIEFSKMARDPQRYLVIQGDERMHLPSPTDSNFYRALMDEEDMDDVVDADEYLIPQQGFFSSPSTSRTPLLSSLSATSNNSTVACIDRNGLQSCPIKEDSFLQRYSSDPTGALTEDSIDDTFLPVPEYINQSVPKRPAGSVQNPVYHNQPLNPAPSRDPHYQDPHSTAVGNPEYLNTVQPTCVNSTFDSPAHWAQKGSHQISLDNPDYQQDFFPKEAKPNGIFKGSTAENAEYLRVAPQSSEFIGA
T2 sequence (P04626 23-1255): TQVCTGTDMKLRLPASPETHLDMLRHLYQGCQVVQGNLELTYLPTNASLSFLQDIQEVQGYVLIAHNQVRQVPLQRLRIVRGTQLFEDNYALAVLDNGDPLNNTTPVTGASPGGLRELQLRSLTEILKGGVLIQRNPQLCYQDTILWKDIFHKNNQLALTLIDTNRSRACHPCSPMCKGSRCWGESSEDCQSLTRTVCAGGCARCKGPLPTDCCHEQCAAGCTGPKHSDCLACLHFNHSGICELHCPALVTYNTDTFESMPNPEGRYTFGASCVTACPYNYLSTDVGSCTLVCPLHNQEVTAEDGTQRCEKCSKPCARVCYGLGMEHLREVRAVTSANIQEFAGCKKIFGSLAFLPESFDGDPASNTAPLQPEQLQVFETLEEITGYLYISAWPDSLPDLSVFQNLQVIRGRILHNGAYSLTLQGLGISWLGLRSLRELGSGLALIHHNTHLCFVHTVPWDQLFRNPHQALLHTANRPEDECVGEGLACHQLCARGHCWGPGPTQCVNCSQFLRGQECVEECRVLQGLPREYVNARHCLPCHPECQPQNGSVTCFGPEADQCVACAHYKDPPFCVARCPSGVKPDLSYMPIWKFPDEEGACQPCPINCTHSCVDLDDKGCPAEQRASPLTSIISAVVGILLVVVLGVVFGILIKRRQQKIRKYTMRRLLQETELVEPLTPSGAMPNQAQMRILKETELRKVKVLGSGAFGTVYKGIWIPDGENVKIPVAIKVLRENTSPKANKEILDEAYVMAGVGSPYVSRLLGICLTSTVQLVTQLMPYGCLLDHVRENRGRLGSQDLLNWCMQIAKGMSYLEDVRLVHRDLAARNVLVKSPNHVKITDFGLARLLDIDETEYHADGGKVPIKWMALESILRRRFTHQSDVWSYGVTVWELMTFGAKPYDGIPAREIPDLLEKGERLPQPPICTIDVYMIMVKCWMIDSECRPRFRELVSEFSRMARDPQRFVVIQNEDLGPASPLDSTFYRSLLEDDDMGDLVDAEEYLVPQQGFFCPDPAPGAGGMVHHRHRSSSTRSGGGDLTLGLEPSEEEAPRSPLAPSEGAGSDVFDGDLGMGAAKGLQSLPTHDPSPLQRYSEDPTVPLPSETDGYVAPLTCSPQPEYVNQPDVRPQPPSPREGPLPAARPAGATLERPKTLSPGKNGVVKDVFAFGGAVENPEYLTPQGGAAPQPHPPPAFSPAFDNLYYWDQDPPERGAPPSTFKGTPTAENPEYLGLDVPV

Take `CN1CCC(c2nc(-c3cccc(NC(=O)c4c(F)cccc4F)c3)c(-c3ccnc(Nc4ccc5c(c4)CN(C)CC5)n3)s2)CC1` [Example 125, 2,6-Difluoro-N-[3-(2-(1-methyl-4-piperidinyl)-5-{2-[(2-methyl-1,2,3,4-tetrahydro-7-isoquinolinyl)amino]-4-pyrimidinyl}-1,3-thiazol-4-yl)phenyl]benzamide]: the half-maximal inhibitory concentration (IC50) (as a rule, the midpoint of a concentration-inhibition curve) was below 100 nM at EGFR (setting [1]); below 100 nM at ErbB2 (setting [1]); 100 to 1000 nM with BT474 tumor cells; 100 to 1000 nM with Colo205 tumor cells; 100 to 1000 nM in the test with SK-MEL-28 tumor cells.

Consider `Cc1nc(-c2cccc(NC(=O)c3c(F)cccc3F)c2)c(-c2ccnc(Nc3ccc(OCCN4CCCC4)c(Cl)c3)n2)s1` [Example 110, N-[3-(5-{2-[(3-Chloro-4-{[2-(1-pyrrolidinyl)ethyl]oxy}phenyl)amino]-4-pyrimidinyl}-2-methyl-1,3-thiazol-4-yl)phenyl]-2,6-difluorobenzamide], for which the IC50 on EGFR (setting [1]) was below 100 nM; on ErbB2 (setting [1]), below 100 nM; in the test with BT474 tumor cells it was 100 to 1000 nM; with Colo205 tumor cells, above 1000 nM; in the test with SK-MEL-28 tumor cells, above 1000 nM.

Regarding `O=C(Nc1cccc(-c2ncoc2-c2ccnc(Nc3cccc(F)c3)n2)c1)c1c(F)cccc1F` [Example 141, 2,6-Difluoro-N-[3-(5-{2-[(3-fluorophenyl)amino]-4-pyrimidinyl}-1,3-oxazol-4-yl)phenyl]benzamide], the IC50 at EGFR (setting [2]) and at ErbB2 (setting [2]) was above 1000 nM in each case.

Regarding `Cc1cccc(C(=O)Nc2cccc(-c3nc(C)sc3-c3ccnc(Nc4ccc(OCCN(C)C)c(Cl)c4)n3)c2)c1` [Example 135, N-[3-(5-{2-[(3-Chloro-4-{[2-(dimethylamino)ethyl]oxy}phenyl)amino]-4-pyrimidinyl}-2-methyl-1,3-thiazol-4-yl)phenyl]-3-methylbenzamide], the half-inhibitory concentration (IC50) on EGFR (setting [1]) was below 100 nM; on ErbB2 (setting [1]), below 100 nM; with BT474 tumor cells, 100 to 1000 nM; in the test with Colo205 tumor cells, above 1000 nM; with SK-MEL-28 tumor cells it was above 1000 nM.

Consider `CCc1nc(-c2cccc(NC(=O)c3c(F)cccc3F)c2)c(-c2ccnc(Nc3ccc(N4CCC(N5CCCCC5)CC4)c(F)c3)n2)s1` [Example 116, N-{3-[5-(2-{[4-(1,4′-Bipiperidin-1′-yl)-3-fluorophenyl]amino}-4-pyrimidinyl)-2-ethyl-1,3-thiazol-4-yl]phenyl}-2,6-difluorobenzamide], for which the half-inhibitory concentration (IC50) on EGFR (setting [1]) was below 100 nM; at ErbB2 (setting [1]) it was below 100 nM; in the test with Colo205 tumor cells, 100 to 1000 nM; with SK-MEL-28 tumor cells it was above 1000 nM.

`O=C(Nc1cccc(-c2nc(CF)sc2-c2ccnc(Nc3ccc(OCCN4CCCC4)c(F)c3)n2)c1)c1c(F)cccc1F` [Example 127]: the IC50 was below 100 nM on EGFR (setting [1]), below 100 nM on ErbB2 (setting [1]), above 1000 nM in the test with Colo205 tumor cells and above 1000 nM with SK-MEL-28 tumor cells.

For `CN(C)c1nc(-c2cccc(NC(=O)c3c(F)cccc3F)c2)c(-c2ccnc(Nc3ccc(OCCN4CCCC4)nc3)n2)s1` [Example 43, N-[3-(2-(Dimethylamino)-5-{2-[(6-{[2-(1-pyrrolidinyl)ethyl]oxy}-3-pyridinyl)amino]-4-pyrimidinyl}-1,3-thiazol-4-yl)phenyl]-2,6-difluorobenzamide], the IC50 at EGFR (setting [1]) was below 100 nM; at ErbB2 (setting [1]) it was below 100 nM; in the test on Colo205 tumor cells it was 100 to 1000 nM; in the test with SK-MEL-28 tumor cells, above 1000 nM.

In the case of `CN(C)c1nc(-c2cccc(NC(=O)c3c(F)cccc3F)c2)c(-c2ccnc(Nc3ccc(N4CCOCC4)c(Cl)c3)n2)s1` [Example 41, N-{3-[5-(2-{[3-Chloro-4-(4-morpholinyl)phenyl]amino}-4-pyrimidinyl)-2-(dimethylamino)-1,3-thiazol-4-yl]phenyl}-2,6-difluorobenzamide trifluoroacetate], the half-maximal inhibitory concentration (IC50) at EGFR (setting [1]) was below 100 nM; on ErbB2 (setting [1]), below 100 nM; in the test on Colo205 tumor cells, above 1000 nM; with SK-MEL-28 tumor cells, above 1000 nM.

`O=C(Nc1cccc(-c2nc(N3CCC3)sc2-c2ccnc(Nc3ccc(OCCN4CCCC4)c(Cl)c3)n2)c1)c1c(F)cccc1F` [Example 47, N-[3-(2-(1-Azetidinyl)-5-{2-[(3-chloro-4-{[2-(1-pyrrolidinyl)ethyl]oxy}phenyl)amino]-4-pyrimidinyl}-1,3-thiazol-4-yl)phenyl]-2,6-difluorobenzamide]: the IC50 on EGFR (setting [1]) was below 100 nM; at ErbB2 (setting [1]), below 100 nM; in the test with BT474 tumor cells, above 1000 nM; with Colo205 tumor cells, above 1000 nM; with SK-MEL-28 tumor cells, above 1000 nM.

With `CC(C)(C)S(=O)(=O)Cc1nc(-c2cccc(NC(=O)c3c(F)cccc3F)c2)c(-c2ccnc(Nc3ccc(OCCN4CCCC4)c(Cl)c3)n2)s1` [Example 119], the half-inhibitory concentration (IC50) on EGFR (setting [1]) was below 100 nM; at ErbB2 (setting [1]) it was below 100 nM; in the test on BT474 tumor cells, 100 to 1000 nM; with Colo205 tumor cells, 100 to 1000 nM; in the test with SK-MEL-28 tumor cells it was above 1000 nM.
